Reference: ChEMBL document CHEMBL6182851, “Discovery of dual CDK4/6 and BRD4 inhibitor as apoptosis and autophagy inducers against NSCLC in vitro and in vivo” (Eur J Med Chem, 2025)
Calls of active or inactive are those of the source. The rule behind the calls is not given here.

Tests used:
[1] = biological target: Cyclin-dependent kinase 4 (Homo sapiens, UniProt P11802); test: Inhibition of CDK4 (unknown origin)
[2] = tested on: L02; test: Cytotoxicity against human LO2 cells assessed as inhibition of cell viability at 5 to 10 uM incubated for 48 hrs by MTT assay; type: toxicity, cell-based; conditions: l02, 48 h, dose 5-10 µM
[3] = tested on: NCI-H460; test: Antiproliferative activity against human NCI-H460 cells assessed as decrease in c-myc expression at 2 to 8 uM treated for 24 hrs by immunofluorescence analysis; type: functional, cell-based; conditions: dose 2-8 µM
[4] = tested on: NCI-H460; test: Antiproliferative activity against human NCI-H460 cells assessed as decrease in p-Rb expression at 2 to 8 uM treated for 24 hrs by immunofluorescence analysis; type: functional, cell-based; conditions: dose 2-8 µM
[5] = tested on: NCI-H460; test: Induction of apoptosis in human NCI-H460 cells assessed as late apoptotic cells at 4 uM incubated for 48 hrs by Annexin V-PE/7-AAD staining based flow cytometric analysis (reference value: 3.76 %); type: functional
[6] = tested on: NCI-H460; test: Induction of apoptosis in human NCI-H460 cells assessed as necrotic cells at 4 uM incubated for 48 hrs by Annexin V-PE/7-AAD staining based flow cytometric analysis (reference value: 0.79 %); type: functional
[7] = tested on: NCI-H460; test: Induction of apoptosis in human NCI-H460 cells assessed as late apoptotic cells at 8 uM incubated for 48 hrs by Annexin V-PE/7-AAD staining based flow cytometric analysis (reference value: 3.76 %); type: functional
[8] = tested on: NCI-H460; test: Induction of cell cycle arrest in human NCI-H460 cells assessed as accumulation of cells at S phase at 4 uM incubated for 48 hrs by PI staining based flow cytometric analysis (reference value: 33.3 %); type: functional
[9] = tested on: NCI-H460; test: Induction of cell cycle arrest in human NCI-H460 cells assessed as accumulation of cells at G1 phase at 8 uM incubated for 48 hrs by PI staining based flow cytometric analysis (reference value: 56.7 %); type: functional
[10] = tested on: NCI-H460; test: Induction of cell cycle arrest in human NCI-H460 cells assessed as accumulation of cells at S phase at 8 uM incubated for 48 hrs by PI staining based flow cytometric analysis (reference value: 33.3 %); type: functional
[11] = tested on: NCI-H460; test: Induction of autophagy in human NCI-H460 cells assessed as increase in vacuole formation incubated for 12 hrs by microscopic analysis; type: functional, cell-based
[12] = tested on: NCI-H460; test: Induction of autophagy in human NCI-H460 cells assessed as increase in acidic vesicles incubated for 48 hrs by MDC staining and LC3B immunofluorescence analysis; type: functional, cell-based; conditions: dose 2-8 µM
[13] = tested on: NCI-H460; test: Induction of autophagy in human NCI-H460 cells assessed as decrease in P62 expression at 2 to 8 uM incubated for 48 hrs by Western blotting analysis; type: functional, cell-based; conditions: dose 2-8 µM
[14] = tested on: NCI-H460; test: Induction of autophagy in human NCI-H460 cells assessed as increase in LC3-II expression incubated for 48 hrs by Western blotting analysis; type: functional, cell-based; conditions: dose 2-8 µM
[15] = tested on: NCI-H460; test: Induction of autophagy in human NCI-H460 cells assessed as colocalization of LC3B site with LAMP1 protein incubated for 24 hrs by immunofluorescence analysis; type: functional, cell-based; conditions: dose 2-8 µM
[16] = tested on: NCI-H460; test: Induction of autophagy in human NCI-H460 cells assessed as increase in autophagic vesicles at 4 uM incubated for 24 hrs by transmission electron microscopic analysis; type: functional, cell-based
[17] = tested on: NCI-H460; test: Induction of autophagy in human NCI-H460 cells assessed as production of autophagic vesicles at 4 uM incubated for 24 hrs by transmission electron microscopic analysis; type: functional, cell-based
[18] = tested on: NCI-H460; test: Induction of autophagy in human NCI-H460 cells assessed as upregulation of beclin 1 level; type: functional, cell-based
[19] = C0 in male Sprague-Dawley rat at 5 mg/kg, iv measured up to 24 hrs by LC-MS/MS analysis; type: ADME, organism-based; conditions: in vivo
[20] = AUC (0 to infinity) in male Sprague-Dawley rat at 5 mg/kg, iv measured up to 24 hrs by LC-MS/MS analysis; type: ADME, organism-based; conditions: in vivo
[21] = Half life in male Sprague-Dawley rat at 5 mg/kg, iv measured up to 24 hrs by LC-MS/MS analysis; type: ADME, organism-based; conditions: in vivo
[22] = MRT (0 to infinity) in male Sprague-Dawley rat at 5 mg/kg, iv measured up to 24 hrs by LC-MS/MS analysis; type: ADME, organism-based; conditions: in vivo
[23] = tested on: NCI-H460; test: Antitumor activity against human NCI-H460 cells xenografted in female BALB/c nude mouse assessed as tumor growth inhibition at 25 mg/kg, ip administered for 21 consecutive days relative to control; type: functional; conditions: NCI-H460, 504 h, time 21 day, read-out: TGI
[24] = tested on: NCI-H460; test: Antitumor activity against human NCI-H460 cells xenografted in female BALB/c nude mouse assessed as decrease in Ki67-positive cells at 50 mg/kg, ip administered for 21 consecutive days by immunohistochemical analysis; type: functional, organism-based; conditions: time 21.0 day
[25] = tested on: NCI-H460; test: Antitumor activity against human NCI-H460 cells xenografted in female BALB/c nude mouse assessed as reduction in c-Myc expression at 50 mg/kg, ip administered for 21 consecutive days by immunohistochemical analysis; type: functional, organism-based; conditions: time 21.0 day
[26] = tested on: L02; test: Cytotoxicity against human LO2 cells measured up to 8 days; type: toxicity, cell-based; conditions: l02, 192 h, time < 8 day
[27] = Toxicity in mouse assessed as body weight change at 100 to 400 mg/kg, ip measured for 21 days; type: organism-based; conditions: in vivo, 504 h, dose 100-400 mg/kg, time 21 day
[28] = Toxicity in mouse assessed as histological change in spleen at 400 mg/kg, ip measured for 21 days by H and E staining based analysis; type: organism-based; conditions: in vivo, 504 h, time 21 day
[29] = tested on: A549; test: cells; conditions: Homo sapiens, A549, 48 h
Description: Antitumor activity against human A549 cells assessed as inhibition of cell viability incubated for 48 hrs by MTT assay

[30] = tested on: NCI-H460; test: cells; conditions: Homo sapiens, NCI-H460, 48 h
Description: Antitumor activity against human NCI-H460 cells assessed as inhibition of cell viability incubated for 48 hrs by MTT assay

Chain of Cyclin-dependent kinase 4 (P11802 whole entry): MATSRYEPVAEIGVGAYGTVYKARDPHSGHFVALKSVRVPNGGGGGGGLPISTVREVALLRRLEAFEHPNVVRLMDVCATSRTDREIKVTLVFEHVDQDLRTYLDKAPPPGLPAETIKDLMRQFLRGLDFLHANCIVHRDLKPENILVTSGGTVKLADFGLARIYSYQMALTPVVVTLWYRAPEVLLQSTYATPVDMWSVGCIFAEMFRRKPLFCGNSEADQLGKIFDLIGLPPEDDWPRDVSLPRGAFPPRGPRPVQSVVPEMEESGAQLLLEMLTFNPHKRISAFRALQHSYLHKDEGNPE

Q: Which IC50 [1] does the source give for `COc1cc(-c2nc3ccc(F)cc3c(=O)[nH]2)cc(OC)c1OCC(=O)N1CCN(c2ccc(Nc3ncc4cc(C(=O)N(C)C)n(C5CCCC5)c4n3)nc2)CC1` here?
A: 85.1 nM

Q: What about the Activity [2] of the same molecule?
A: Non-toxic

Q: And the Activity [3]?
A: Active

Q: And the Activity [4]?
A: Active

Q: What about the Activity [5] of the same molecule?
A: 6.56%

Q: And the Activity [6]?
A: 1.06%

Q: And the Activity [7]?
A: 3.07%

Q: And the Activity [8]?
A: 18.8%

Q: And the Activity [9]?
A: 80.8%

Q: And the Activity [10]?
A: 15.8%

Q: And the Activity [11]?
A: Active

Q: What about the Activity [12] of the same molecule?
A: Dose-dependent-effect

Q: And the Activity [13]?
A: Active

Q: And the Activity [14]?
A: Dose-dependent-effect

Q: What about the Activity [15] of the same molecule?
A: Dose-dependent-effect

Q: And the Activity [16]?
A: Active

Q: What about the Activity [17] of the same molecule?
A: Active

Q: What about the Activity [18] of the same molecule?
A: Active

Q: What about the C0 at 24 h [19] of the same molecule?
A: 6000 ng/mL

Q: What about the AUC(0-inf) [20] of the same molecule?
A: 3860 ng·h/mL

Q: And the half-life [21]?
A: 7.42 h

Q: What about the MRT inf [22] of the same molecule?
A: 3.04 h

Q: What about the inhibition in vivo at 25 mg/kg [23] of the same molecule?
A: 67.8%

Q: And the Activity [24]?
A: Active

Q: And the Activity [25]?
A: Active

Q: And the Activity [26]?
A: Non-toxic

Q: And the Activity [27]?
A: Non-toxic

Q: And the Activity [28]?
A: Non-toxic

Q: What about the IC50 [29] of the same molecule?
A: 4590 nM

Q: What about the IC50 [30] of the same molecule?
A: 2210 nM
